Drawing on US8354419B2, “Benzimidazole analogues for the treatment or prevention of flavivirus infections” (Vertex Pharmaceuticals Incorporated, priority 2009, dated 2013), this text covers EC50 for 14 compounds.

Bounds are passed on as bounds.

The test concerns HCV (Ib) RNA replication. Put plainly: Cell-based luciferase reporter HCV (1b) RNA replication assay (replicon cell lines Huh-7 5.2 and ET). The conditions noted are these: Hepatitis C virus, Huh-7, 96 h, HCV 1b genotype replicon, luciferase readout, 4 days incubation; read-out: EC50_1b. Details: species or system Hepatitis C virus. The text has this:
Cell-Based Luciferase Reporter HCV (Ib) RNA Replication Assay Cell Culture
Replicon cell lines Huh-7, 5.2 and ET which are derived from the Huh-7 hepatocarcinoma cell line are maintained in culture as generally described in Krieger, N; Lohmann, V; Bartenschlager, R. Enhancement of hepatitis C virus RNA replication by cell culture-adaptive mutations. J. Virol. 2001, 75, 4614-4624. The Huh-7, 5.2 cells contain the highly cell culture-adapted replicon I389luc-ubi-neo/NS3-3′/5.1 construct that carries, in addition to the neomycin gene, an integrated copy to the firefly luciferase gene (Krieger, N; Lohmann, V; Bartenschlager, R. Enhancement of hepatitis C virus RNA replication by cell culture-adaptive mutations. J. Virol. 2001, 75, 4614-4624). This cell line allows measurement of HCV RNA replication and translation by measuring luciferase activity. It has been previously shown that the luciferase activity tightly follows the replicon RNA level in these cells (Krieger, N; Lohmann, V; Bartenschlager, R. Enhancement of hepatitis C virus RNA replication by cell culture-adaptive mutations. J. Virol. 2001, 75, 4614-4624). The Huh-7, ET cell line has the same features as those mentioned for Huh-7, 5.2 cell line, except that ET cells are more robust and contain an adaptative mutation in the HCV NS4B gene instead of NS5A. Both cell lines are maintained in cultures at a sub-confluent level (<85%) as the level of replicon RNA is highest in actively proliferating cells. The culture media used for cell passaging consist of DMEM (Gibco BRL Laboratories, Mississauga, ON, Canada) supplemented with 10% foetal bovine serum with 1% penicillin/streptomycin, 1% glutamine, 1% sodium pyruvate, 1% non-essential amino acids, and 180 ug/ml of G418 final concentration. Cells are incubated at 37° C., in an atmosphere of 5% CO2 and passaged twice a week to maintain sub-confluence.
Approximately 3000 viable Huh-7, 5.2 or ET cells (100 μl) are plated per well in a white opaque 96-well microtiter plate. The cell culture media used for the assay is the same as described above except that it contains no G418 and no phenol red. After an incubation period of 3-4 hours at 37° C. in a 5% CO2 incubator, compounds (100 μl) are added at various concentrations. Cells are then further incubated for 4 days at 37° C. in a 5% CO2 incubator. Thereafter, the culture media is removed and cells are lysed by the addition of 95 μL of the luciferase buffer (luciferin substrate in buffered detergent). Cell lysates are incubated at room temperature and protected from direct light for at least 10 minutes. Plates are read for luciferase counts using a luminometer (Wallac MicroBeta Trilux, Perkin ELmer™, MA, USA).
The 50% inhibitory concentrations (IC50s) for inhibitory effect are determined from dose response curves using eleven concentrations per compound in duplicate. Curves are fitted to data points using nonlinear regression analysis, and IC50s are interpolated from the resulting curve using GraphPad Prism software, version 2.0 (GraphPad Software Inc., San Diego, Calif., USA).
Table 2 show compounds representative of the present invention and the EC50 values against the HCV 1b genotype.
A general note: Reporter assays use an easily measured gene product as a stand-in for the process of interest.
Regarding `COC(=O)NC(C(=O)N1C[C@H](O)C[C@H]1c1nc2ccc(-c3ccc(-c4ccc5[nH]c([C@@H]6C[C@@H](O)CN6C(=O)[C@@H](NC(=O)OC)C(C)C)nc5c4)cc3)cc2[nH]1)C(C)C` (stereo in doubt) [Compound 26, ((S)-1-{(2S,4R)-4-Hydroxy-2-[5-(4-{2-[(2S,4R)-4-hydroxy-1-((S)-2-methoxycarbonylamino-3-methyl-butyryl)-pyrrolidin-2-yl]-1H-benzoimidazol-5-yl}-phenyl)-1H-benzoimidazol-2-yl]-pyrrolidine-1-carbonyl}-2-methyl-propyl)-carbamic acid methyl ester], the EC50 is at most 5 nM.

As for `COC(=O)N[C@H](C(=O)N1CCC[C@H]1c1nc2cc(-c3ccc(-c4ccc5nc([C@@H]6CCCN6C(=O)[C@@H](NC(=O)OC)C(C)C)[nH]c5c4)cc3)ccc2[nH]1)C(C)C` [Compound 1, ((S)-1-{(S)-2-[5-(4-{2-[(S)-1-((S)-2-Methoxycarbonylamino-3-methyl-butyryl)-pyrrolidin-2-yl]-1H-benzoimidazol-5-yl}-phenyl)-1H-benzoimidazol-2-yl]-pyrrolidine-1-carbonyl}-2-methyl-propyl)-carbamic acid methyl ester], the EC50 was at most 5 nM.

Turning to `COC(=O)N[C@H](C(=O)N1CCC[C@H]1c1nc2ccc(-c3cccc(-c4ccc5nc([C@@H]6CCCN6C(=O)[C@@H](NC(=O)OC)C(C)C)[nH]c5c4)c3)cc2[nH]1)C(C)C` [Compound 2, ((S)-1-{(S)-2-[5-(3-{2-[(S)-1-((S)-2-Methoxycarbonylamino-3-methyl-butyryl)-pyrrolidin-2-yl]-1H-benzoimidazol-5-yl}-phenyl)-1H-benzoimidazol-2-yl]-pyrrolidine-1-carbonyl}-2-methyl-propyl)-carbamic acid methyl ester], the EC50 lay in the range of 5 to 5000 nM.

In the case of `COC(=O)N[C@H](C(=O)N1CC(F)(F)C[C@H]1c1nc2cc(-c3ccc(-c4ccc5nc([C@@H]6CC(F)(F)CN6C(=O)[C@@H](NC(=O)OC)C(C)C)[nH]c5c4)cc3)ccc2[nH]1)C(C)C` [Compound 3, ((S)-1-{(S)-2-[5-(4-{2-[(S)-4,4-Difluoro-1-((S)-2-methoxycarbonylamino-3-methyl-butyryl)-pyrrolidin-2-yl]-1H-benzoimidazol-5-yl}-phenyl)-1H-benzoimidazol-2-yl]-4,4-difluoro-pyrrolidine-1-carbonyl}-2-methyl-propyl)-carbamic acid methyl ester], the EC50 is at most 5 nM.

On to `COC(=O)N(C)[C@H](C(=O)N1CCC[C@H]1c1nc2cc(-c3ccc(-c4ccc5nc([C@@H]6CCCN6C(=O)[C@H](C(C)C)N(C)C(=O)OC)[nH]c5c4)cc3)ccc2[nH]1)C(C)C` [Compound 4, [(S)-1-((S)-2-{5-[4-(2-{(S)-1-[(S)-2-(Methoxycarbonyl-methyl-amino)-3-methyl-butyryl]-pyrrolidin-2-yl}-1H-benzoimidazol-5-yl)-phenyl]-1H-benzoimidazol-2-yl}-pyrrolidine-1-carbonyl)-2-methyl-propyl]-methyl-carbamic acid methyl ester], for which the EC50 is at most 5 nM.

As for `COC(=O)N[C@H](C(=O)N1CCC[C@H]1c1nc2cc(-c3ccc(-c4ccc5nc([C@@H]6CCCN6C(=O)[C@@H](NC(=O)OC)C(C)C)[nH]c5c4)cc3C#N)ccc2[nH]1)C(C)C` [Compound 5, ((S)-1-{(S)-2-[5-(2-Cyano-4-{2-[(S)-1-((S)-2-methoxycarbonylamino-3-methyl-butyryl)-pyrrolidin-2-yl]-1H-benzoimidazol-5-yl}-phenyl)-1H-benzoimidazol-2-yl]-pyrrolidine-1-carbonyl}-2-methyl-propyl)-carbamic acid methyl ester], the EC50 is at most 5 nM.

Take `COC(=O)N[C@H](C(=O)N1CCC[C@H]1c1nc2cc(-c3ccc(-c4ccc5nc([C@@H]6CCCN6C(=O)[C@@H](NC(=O)OC)C(C)C)[nH]c5c4)cn3)ccc2[nH]1)C(C)C` [Compound 6, ((S)-1-{(S)-2-[5-(5-{2-[(S)-1-((S)-2-Methoxycarbonylamino-3-methyl-butyryl)-pyrrolidin-2-yl]-1H-benzoimidazol-5-yl}-pyridin-2-yl)-1H-benzoimidazol-2-yl]-pyrrolidine-1-carbonyl}-2-methyl-propyl)-carbamic acid methyl ester]: the EC50 was at most 5 nM.

In the case of `COC(=O)N[C@H](C(=O)N1CCC[C@H]1c1nc2cc(-c3ccc(-c4ccc5nc([C@@H]6CCCN6C(=O)[C@@H](NC(=O)OC)C(C)C)[nH]c5c4)cc3C)ccc2[nH]1)C(C)C` [Compound 7, ((S)-1-{(S)-2-[5-(4-{2-[(S)-1-((S)-2-Methoxycarbonylamino-3-methyl-butyryl)-pyrrolidin-2-yl]-1H-benzoimidazol-5-yl}-2-methyl-phenyl)-1H-benzoimidazol-2-yl]-pyrrolidine-1-carbonyl}-2-methyl-propyl)-carbamic acid methyl ester], the EC50 was at most 5 nM.

Take `COC(=O)N[C@H](C(=O)N1CCC[C@H]1c1nc2cc(-c3ccc(-c4ccc5nc([C@@H]6CCCN6C(=O)[C@@H](NC(=O)OC)C(C)C)[nH]c5c4)cc3OC)ccc2[nH]1)C(C)C` [Compound 8, ((S)-1-{(S)-2-[5-(2-Methoxy-4-{2-[(S)-1-((S)-2-methoxycarbonylamino-3-methyl-butyryl)-pyrrolidin-2-yl]-1H-benzoimidazol-5-yl}-phenyl)-1H-benzoimidazol-2-yl]-pyrrolidine-1-carbonyl}-2-methyl-propyl)-carbamic acid methyl ester]: the EC50 was at most 5 nM.

Turning to `COC(=O)N[C@H](C(=O)N1CCC[C@H]1c1nc2cc(-c3ccc(-c4ccc5nc([C@@H]6CCCN6C(=O)[C@@H](NC(=O)OC)C(C)C)[nH]c5c4)cc3F)ccc2[nH]1)C(C)C` [Compound 9, ((S)-1-{(S)-2-[5-(2-Fluoro-4-{2-[(S)-1-((S)-2-methoxycarbonylamino-3-methyl-butyryl)-pyrrolidin-2-yl]-1H-benzoimidazol-5-yl}-phenyl)-1H-benzoimidazol-2-yl]-pyrrolidine-1-carbonyl}-2-methyl-propyl)-carbamic acid methyl ester], the EC50 is at most 5 nM.

Turning to `COC(=O)N[C@H](C(=O)N1CCC[C@H]1c1nc2cc(-c3ccc(-c4ccc5[nH]c([C@@H]6CCCN6C(=O)[C@@H](NC(=O)OC)C(C)C)nc5c4)c(Cl)c3)ccc2[nH]1)C(C)C` [Compound 10, ((S)-1-{(S)-2-[5-(2-Chloro-4-{2-[(S)-1-((S)-2-methoxycarbonylamino-3-methyl-butyryl)-pyrrolidin-2-yl]-1H-benzoimidazol-5-yl}-phenyl)-1H-benzoimidazol-2-yl]-pyrrolidine-1-carbonyl}-2-methyl-propyl)-carbamic acid methyl ester], the EC50 was at most 5 nM.

Take `COC(=O)N[C@H](C(=O)N1CCC[C@H]1c1nc2cc(-c3ccc(-c4ccc5[nH]c([C@@H]6CCCN6C(=O)[C@@H](NC(=O)OC)C(C)C)nc5c4)c(C#N)n3)ccc2[nH]1)C(C)C` [Compound 11, ((S)-1-{(S)-2-[5-(2-Cyano-6-{2-[(S)-1-((S)-2-methoxycarbonylamino-3-methyl-butyryl)-pyrrolidin-2-yl]-1H-benzoimidazol-5-yl}-pyridin-3-yl)-1H-benzoimidazol-2-yl]-pyrrolidine-1-carbonyl}-2-methyl-propyl)-carbamicacid methyl ester]: the EC50 is 5 to 5000 nM.

As to `COC(=O)N[C@H](C(=O)N1CCC[C@H]1c1nc2ccc(-c3cc(OC)c(-c4ccc5nc([C@@H]6CCCN6C(=O)[C@@H](NC(=O)OC)C(C)C)[nH]c5c4)cc3OC)cc2[nH]1)C(C)C` [Compound 12], the EC50 was at most 5 nM.

As to `COC(=O)N[C@H](C(=O)N1CCC[C@H]1c1nc2cc(-c3ccc(-c4ccc5[nH]c([C@@H]6CCCN6C(=O)[C@@H](NC(=O)OC)C(C)C)nc5c4)c(C)c3C)ccc2[nH]1)C(C)C` [Compound 13, ((S)-1-{(S)-2-[5-(4-{2-[(S)-1-((S)-2-Methoxycarbonylamino-3-methyl-butyryl)-pyrrolidin-2-yl]-1H-benzoimidazol-5-yl}-2,3-dimethyl-phenyl)-1H-benzoimidazol-2-yl]-pyrrolidine-1-carbonyl}-2-methyl-propyl)-carbamic acid methyl ester], the EC50 was at most 5 nM.
